Measured values reported in patent US20230159510A1, “NOVEL PRMT5 INHIBITORS” (AMGEN INC., priority 2020, published 2023).
Read-outs that look alike come from different tables or passages of the source.

Tests used:
[1] = target: PRMT5/MEP50 (Homo sapiens, UniProt O14744); experiment: MTase-Glo methyl transferase assay, Method A (Histone H4 peptide, 1 µM MTA, 24 h pre-incubation); format: biochemical; design: made in house; conditions: read-out: PRMT5 MTase Glo Ki (nM, Meth. A)
In short: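 PRMT5/MEP50 (10 nM) pre-incubated 24 h with compound, 5 µM SAM and 1 µM MTA, then reaction started with 1 µM Histone H4 (1-21) peptide and run 2 h at room temperature in Tris pH 8.0 buffer. SAH formed detected by MTase-Glo luminescence; IC50 and KI from dose-response curves.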

[2] = tested on: HCT116 MTAP null cells; experiment: HCT116 proliferation assay, MTAP null cells (CellTiter-Glo, 6 days); format: cell-based; conditions: 144 h, read-out: Protif_ HCT116-MTAP null IC50
In short: (§1)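 Cells were plated in RPMI 1640 with 10% fetal bovine serum and left overnight at 37° C and 5% CO2. Compound was then added as an 8- or 9-point 1:3 dilution series from a top concentration of 1 or 10 µM, alongside a DMSO-only control. Viability was read by luminescence.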

[3] = tested on: HCT116 WT cells; experiment: HCT116 proliferation assay, WT cells (CellTiter-Glo, 6 days); format: cell-based; conditions: Homo sapiens, HCT-116, 144 h, read-out: Prolif_HCT116-WT IC50
In short: as §1

Sequence of PRMT5/MEP50 (O14744 whole entry): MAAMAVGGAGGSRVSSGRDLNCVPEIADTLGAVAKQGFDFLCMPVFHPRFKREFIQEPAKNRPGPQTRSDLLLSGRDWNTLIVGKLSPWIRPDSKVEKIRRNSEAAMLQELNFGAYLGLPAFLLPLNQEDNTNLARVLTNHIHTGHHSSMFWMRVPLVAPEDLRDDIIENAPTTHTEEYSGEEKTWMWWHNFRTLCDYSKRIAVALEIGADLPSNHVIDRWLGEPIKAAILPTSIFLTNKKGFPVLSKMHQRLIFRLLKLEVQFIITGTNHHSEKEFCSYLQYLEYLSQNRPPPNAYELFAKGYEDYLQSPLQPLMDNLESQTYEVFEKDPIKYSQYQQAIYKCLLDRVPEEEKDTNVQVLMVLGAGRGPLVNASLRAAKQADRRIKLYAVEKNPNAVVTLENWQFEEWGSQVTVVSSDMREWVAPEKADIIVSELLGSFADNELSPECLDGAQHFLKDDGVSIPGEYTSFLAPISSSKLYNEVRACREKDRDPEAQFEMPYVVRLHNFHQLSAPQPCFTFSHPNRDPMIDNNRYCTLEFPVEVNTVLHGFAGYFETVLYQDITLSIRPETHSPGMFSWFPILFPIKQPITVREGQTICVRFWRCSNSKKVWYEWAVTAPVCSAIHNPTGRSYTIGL
Sequence of PRMT5/MEP50 (Q9BQA1 whole entry partner): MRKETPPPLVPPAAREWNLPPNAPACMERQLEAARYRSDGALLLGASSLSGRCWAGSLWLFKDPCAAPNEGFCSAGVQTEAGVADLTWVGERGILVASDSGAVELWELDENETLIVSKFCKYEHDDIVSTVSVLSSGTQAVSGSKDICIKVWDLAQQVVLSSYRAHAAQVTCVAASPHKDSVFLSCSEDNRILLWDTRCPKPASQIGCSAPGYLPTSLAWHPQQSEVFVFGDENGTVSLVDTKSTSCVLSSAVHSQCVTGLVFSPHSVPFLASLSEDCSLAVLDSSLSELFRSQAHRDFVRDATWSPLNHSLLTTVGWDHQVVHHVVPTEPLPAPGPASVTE

SMILES	Ki [1] [nM]	IC50 ([2]; HCT116-MTAP null) [nM]	IC50 [3] [nM]	IC50 [2] [nM]
[2H]C([2H])([2H])c1cc2cc(C(=O)N(Cc3ccc(C#N)cn3)[C@H](C)c3ncccn3)ccc2nc1N [Example 441, (R)-2-amino-N-((5-cyanopyridin-2-yl)methyl)-3-(methyl-d3)-N-(1-(pyrimidin-2-yl)ethyl)quinoline-6-carboxamide]	0.06	107	2810	–
Cc1cc2cc(C(=O)N(Cc3ccc(C#N)cn3)[C@H](C)c3ncccn3)c(F)cc2nc1N [Example 404, 2-amino-N-((5-cyano-2-pyridinyl)methyl)-7-fluoro-3-methyl-N-((1R)-1-(2-pyrimidinyl)ethyl)-6-quinolinecarboxamide]	1.68	90	3160	–
Cc1cc2cc(C(=O)N(Cc3ccc(C(N)=O)cc3)Cc3ccc(C(F)(F)F)cn3)ccc2nc1N [Example 355, 2-amino-N-(4-carbamoylbenzyl)-3-methyl-N-((5-(trifluoromethyl)-2-pyridinyl)methyl)-6-quinolinecarboxamide]	0.2	159	3350	–
Cc1cc2cc(C(=O)N(Cc3ccc(OC(F)F)cn3)[C@H](C)c3ncccn3)ccc2nc1N (single isomer, unassigned) [Example 491]	0.1	61	1270	–
Cc1cc2cc(C(=O)N(Cc3ccc(C(F)(F)F)cn3)CC(C)C)c(F)cc2nc1N [Example 314, 2-amino-7-fluoro-3-methyl-N-(2-methylpropyl)-N-((5-(trifluoromethyl)-2-pyridinyl)methyl)-6-quinolinecarboxamide]	0.35	–	5130	218
Cc1cc2cc(C(=O)N(Cc3ccc(C(=O)N(C)C)cn3)Cc3ncccc3F)ccc2nc1N [Example 560, 2-amino-N-((5-(dimethylcarbamoyl)-2-pyridinyl)methyl)-N-((3-fluoro-2-pyridinyl)methyl)-3-methyl-6-quinolinecarboxamide]	0.2	623	> 10000	–
C[C@H](c1ncccn1)N(Cc1ccc(C(F)(F)F)cn1)C(=O)c1cnc2nc(N)c(Br)cc2c1 [Example 512, 7-amino-6-bromo-N-((1R)-1-(2-pyrimidinyl)ethyl)-N-((5-(trifluoromethyl)-2-pyridinyl)methyl)-1,8-naphthyridine-3-carboxamide]	0.13	121	3100	–
Cc1cc2cc(C(=O)N(Cc3ccc(S(=O)(=O)C4CC4)cn3)[C@H](C)c3ncccc3F)ccc2nc1N [Example 540, (R)-2-amino-N-((5-(cyclopropylsulfonyl)pyridin-2-yl)methyl)-N-(1-(3-fluoropyridin-2-yl)ethyl)-3-methylquinoline-6-carboxamide]	0.17	194	6270	–
CCOc1ccc(CN(C(=O)c2ccc3nc(N)c(C)cc3c2)[C@H](C)c2ncccn2)nn1 [Example 377, 2-amino-N-((6-ethoxy-3-pyridazinyl)methyl)-3-methyl-N-((1R)-1-(2-pyrimidinyl)ethyl)-6-quinolinecarboxamide]	0.07	61	2560	–
Cc1cc2cc(C(=O)N(Cc3ncc(C(F)(F)F)cc3F)CC(C)C)ccc2nc1N [Example 308, 2-amino-N-((3-fluoro-5-(trifluoromethyl)-2-pyridinyl)methyl)-3-methyl-N-(2-methylpropyl)-6-quinolinecarboxamide]	2.34	620	> 10000	–
Cc1cc2cc(C(=O)N(Cc3ccncn3)Cc3ccc(C(F)(F)F)cn3)ccc2nc1N [Example 335, 2-amino-3-methyl-N-(4-pyrimidinylmethyl)-N-((5-(trifluoromethyl)-2-pyridinyl)methyl)-6-quinolinecarboxamide]	0.73	727	> 10000	–
Cc1cc2cc(C(=O)N(Cc3ccc(C(F)(F)F)cn3)Cc3cnccn3)c(F)cc2nc1N [Example 315, 2-amino-7-fluoro-3-methyl-N-(2-pyrazinylmethyl)-N-((5-(trifluoromethyl)-2-pyridinyl)methyl)-6-quinolinecarboxamide]	0.25	181	4340	–
Cc1cc2cc(C(=O)N(Cc3ccc(C(F)(F)F)nn3)[C@H](C)c3ncccc3Cl)ccc2nc1N (single isomer, unassigned) [Example 525]	0.23	598	7610	–
Cc1cc2cc(C(=O)N(Cc3ccc(C(F)(F)F)cn3)[C@@H](C)c3ncccc3F)ccc2nc1N [Example 386, 2-amino-N-((1S)-1-(3-fluoro-2-pyridinyl)ethyl)-3-methyl-N-((5-(trifluoromethyl)-2-pyridinyl)methyl)-6-quinolinecarboxamide]	3.46	–	3830	241
Cc1cc2cc(C(=O)N(Cc3ccc(C(F)(F)F)nn3)[C@@H]3CCc4cccnc43)ccc2nc1N [Example 395, 2-amino-N-((7R)-6,7-dihydro-5H-cyclopenta[b]pyridin-7-yl)-3-methyl-N-((6-(trifluoromethyl)-3-pyridazinyl)methyl)-6-quinolinecarboxamide]	0.16	82	2370	–
Cc1cc2cc(C(=O)N(Cc3ccc(C(F)(F)F)nn3)[C@@H]3CCOc4ccc(F)nc43)ccc2nc1N [Example 515, (R)-2-amino-N-(6-fluoro-3,4-dihydro-2H-pyrano[3,2-b]pyridin-4-yl)-3-methyl-N-((6-(trifluoromethyl)pyridazin-3-yl)methyl)quinoline-6-carboxamide]	0.02	23	480	–
Cc1c(N)nc2ccc(C(=O)N(Cc3ccc(C#N)cn3)[C@H](C)c3ncccn3)cc2c1C [Example 545, 2-amino-N-((5-cyano-2-pyridinyl)methyl)-3,4-dimethyl-N-((1R)-1-(2-pyrimidinyl)ethyl)-6-quinolinecarboxamide]	0.41	32	478	–
Cc1cc2cc(C(=O)N(Cc3ccc(OC4CC4)cn3)[C@H](C)c3ncccn3)ccc2nc1N [Example 376, 2-amino-N-((5-(cyclopropyloxy)-2-pyridinyl)methyl)-3-methyl-N-((1R)-1-(2-pyrimidinyl)ethyl)-6-quinolinecarboxamide]	0.02	62	1510	–
Cc1cc2cc(C(=O)N(Cc3ccc(Cl)cn3)[C@H](C)c3ncccn3)ccc2nc1N [Example 504, 2-amino-N-((5-chloro-2-pyridinyl)methyl)-3-methyl-N-((1R)-1-(2-pyrimidinyl)ethyl)-6-quinolinecarboxamide]	0.05	49	1360	–
Cc1cc2cc(C(=O)N(CC(C)C)[C@H](C)c3ccc(C(F)(F)F)cn3)ccc2nc1N (single isomer, unassigned) [Example 472]	1.04	889	> 10000	–
CC(=O)N1CC=C(c2ccc(CN(C(=O)c3ccc4nc(N)c(C)cc4c3)[C@H](C)c3ncccn3)nc2)CC1 [Example 548, N-((1′-acetyl-1’,2’,3’,6′-tetrahydro[3,4′-bipyridin]-6-yl)methyl)-2-amino-3-methyl-N-((1R)-1-(2-pyrimidinyl)ethyl)-6-quinolinecarboxamide]	0.1	88	2080	–
Cc1cc2cc(C(=O)N(Cc3ccc(C(F)(F)F)cn3)Cc3ncccc3F)cnc2nc1N [Example 537, 7-amino-N-((3-fluoropyridin-2-yl)methyl)-6-methyl-N-((5-(trifluoromethyl)pyridin-2-yl)methyl)-1,8-naphthyridine-3-carboxamide]	0.51	701	5960	–
COCCN(Cc1ccc(C(F)(F)F)cn1)C(=O)c1ccc2nc(N)c(C)cc2c1 [Example 370, 2-amino-N-(2-methoxyethyl)-3-methyl-N-((5-(trifluoromethyl)-2-pyridinyl)methyl)-6-quinolinecarboxamide]	0.79	194	5620	–
Cc1cc2cc(C(=O)N(Cc3ccc(C(F)(F)F)cn3)C3CC3)c(F)cc2nc1N [Example 332, 2-amino-N-cyclopropyl-7-fluoro-3-methyl-N-((5-(trifluoromethyl)-2-pyridinyl)methyl)-6-quinolinecarboxamide]	4.87	479	5140	–
Cc1cc2cc(C(=O)N(Cc3ccc(Br)cn3)[C@H](C)c3ncccc3Cl)ccc2nc1N [Example 394, 2-amino-N-((5-bromo-2-pyridinyl)methyl)-N-((1R)-1-(3-chloro-2-pyridinyl)ethyl)-3-methyl-6-quinolinecarboxamide]	0.12	384	> 10000	–
Cc1cc2cc(C(=O)N(Cc3ccc(C(F)(F)F)cn3)CC(C)C)c(Cl)cc2nc1N [Example 436, 2-amino-7-chloro-3-methyl-N-(2-methylpropyl)-N-((5-(trifluoromethyl)-2-pyridinyl)methyl)-6-quinolinecarboxamide]	0.14	198	3720	–
N#Cc1ccc(CN(C(=O)c2cnc3nc(N)c(Br)cc3c2)[C@@H](c2ncccn2)C2CC2)nc1 [Example 425, (R)-7-amino-6-bromo-N-((5-cyanopyridin-2-yl)methyl)-N-(cyclopropyl(pyrimidin-2-yl)methyl)-1,8-naphthyridine-3-carboxamide]	0.68	380	2170	–
